Values quoted from earlier work as cited in patent publication US20240262808A1, “XANTHINE OXIDASE INHIBITOR” (JIANGSU ATOM BIOSCIENCE AND PHARMACEUTICAL CO., LTD., priority 2021, published 2024).

Key:
patients with gout = details: patients with gout, per treatment group; cited from earlier work
subjects = details: allopurinol used at maximum doses; cited from earlier work

Oc1ncnc2[nH]ncc12 [allopurinol, Allopurinol]
Sudden cardiac death, share of group (patients with gout): 1.8% | Subjects reaching the treatment endpoint (subjects): less than 50%
